# How the values were obtained:
# [1] = target: T1, mouse Nurr1 receptor (Mus musculus, UniProt Q06219); test: In vitro activity on N2A cells (NBRE-luciferase reporter); assay type: cell-based; conditions: N2A cell line endogenously expressing mouse Nurr1, stably transfected with 8NBRE-luciferase; 24 hours incubation
# T1 construct: On a cell line (N2A) endogenously expressing the mouse Nurr1 receptor; host or cells: Neuro-2A (N2A) mouse neuroblastoma cells stably transfected with 8NBRE-luciferase
# T1 sequence (Q06219 whole entry): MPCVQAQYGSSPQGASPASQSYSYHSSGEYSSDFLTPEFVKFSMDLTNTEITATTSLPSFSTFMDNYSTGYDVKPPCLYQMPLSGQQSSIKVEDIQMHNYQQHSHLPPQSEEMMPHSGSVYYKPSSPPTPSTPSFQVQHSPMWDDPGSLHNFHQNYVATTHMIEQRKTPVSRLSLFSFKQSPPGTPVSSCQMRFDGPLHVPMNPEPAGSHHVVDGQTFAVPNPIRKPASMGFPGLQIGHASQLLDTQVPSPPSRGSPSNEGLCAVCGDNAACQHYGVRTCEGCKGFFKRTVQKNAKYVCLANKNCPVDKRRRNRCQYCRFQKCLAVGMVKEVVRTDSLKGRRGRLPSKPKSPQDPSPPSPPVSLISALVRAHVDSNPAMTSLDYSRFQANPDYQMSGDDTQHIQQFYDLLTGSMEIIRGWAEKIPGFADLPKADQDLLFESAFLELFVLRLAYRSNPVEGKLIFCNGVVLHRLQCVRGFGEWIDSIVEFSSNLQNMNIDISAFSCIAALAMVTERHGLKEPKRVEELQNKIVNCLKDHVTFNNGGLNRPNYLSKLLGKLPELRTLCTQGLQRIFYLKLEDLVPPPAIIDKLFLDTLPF
# Procedure: Evaluation of the In Vitro Activity on N2A Cells
# On a cell line (N2A) endogenously expressing the mouse Nurr1 receptor and stably transfected with the NOT binding response element (NBRE) coupled to the luciferase reporter gene. The EC50 values are between 0.01 and 1000 nM. The assays were carried out according to the procedure described below.
# The Neuro-2A cell line comes from a standard commercial source (ATCC). The Neuro-2A clone was obtained, from a spontaneous tumor originating from an A albino mouse strain, by R. J Klebe et al. This Neuro-2A line is subsequently stably transfected with 8NBRE-luciferase. The N2A-8NBRE cells are cultured until confluence in 75 cm^2 culture flasks containing DMEM supplemented with 10% of fetal calf serum, 4.5 g/l of glucose and 0.4 mg/ml of geneticin. After a week of culture, the cells are recovered with 0.25% trypsin for 30 seconds and then resuspended in DMEM without phenol red, containing 4.5 g/l of glucose and 10% of Hyclone delipidized serum, and deposited into transparent-bottom 96-well white plates. The cells are deposited at a rate of 60 000 per well in 75 μl for 24 hours before the addition of the products. The products are applied in 25 μl and incubated for a further 24 hours. On the day of the measurement, an equivalent volume (100 μl) of Steadylite is added to each well and then left for a period of 30 minutes in order to obtain complete cell lysis and maximum signal production. The plates are subsequently measured in a luminescence counter for microplates after having been sealed with an adhesive film. The products are prepared in the form of a stock solution at 10^−2M and then diluted in 100% of DMSO. Each product concentration is prediluted in culture medium before incubation with the cells, thus containing 0.625% final concentration of DMSO.
# [2] = test system: human NOT receptor; test: Binding to the human NOT receptor by SPR (surface plasmon resonance); conditions: Biacore S51, immobilized GST-NOT whole protein and NOT ligand-binding domain, 3.75 to 0.1 μM, 4° C.
# Procedure: Evaluation of the Binding to the Human NOT Receptor
# The direct binding between compounds of the invention and the human NOT receptor was evaluated using SPR (surface plasmon resonance) technology. In this assay, the protein is immobilized covalently at the matrix and the molecule to be studied is injected into the chamber comprising the sensor chip. The signal is directly proportional to the amount of product bound to the protein. The binding assays were carried out in a Biacore S51 instrument (Biacore Inc., Piscataway, N.J.). The GST-NOT (NOT-FL) whole protein was provided by Invitrogen (PV3265). The NOT ligand-binding domain (His-Thr-NOT 329-598) was expressed and purified as described in Nature, 423, 555-560. The two proteins, diluted to a concentration of 20 μg/ml in an acetate buffer, pH 5.0, containing 5 mM of DTT, were immobilized on a carboxymethyl 5′ dextran surface (CM5 sensor chip, Biacore Inc.) by amine coupling according to the protocol recommended by Biacore, elution being carried out with an HBS-N buffer (10 mM HEPES, 0.15 M NaCl, […], pH 7.4). Approximately 10 000-15 000 resonance units (RU) of the proteins are captured on the surface of the CM5 sensor chip. […] The dissociation was recorded for 5 minutes without any other procedure for regenerating the surface. […]
SMILES,EC50 [1] [nM],"affinity (direct binding, classified by maximum binding level and kinetic parameters) [2]"
"CN(C)c1ccc2nc(C(=O)Nc3cc(F)ccc3F)cn2c1 [Compound 58, N-(2,5-Difluorophenyl)-6-(dimethylamino)imidazo[1,2-a]pyridine-2-carboxamide]",1.3,
"O=C(Nc1ccccc1F)c1cn2cc(-c3cccc(CO)c3)ccc2n1 [Compound 67, N-(2-Fluorophenyl)-6-[3-(hydroxymethyl)phenyl]imidazo[1,2-a]pyridine-2-carboxamide]",0.7,
"Cc1ccc2nc(C(=O)Nc3ccccc3)cn2c1C [Compound 43, 5,6-Dimethyl-N-phenylimidazo[1,2-a]pyridine-2-carboxamide]",0.3,
"O=C(Nc1ccccc1)c1cn2cc(N3CCC3)ccc2n1 [Compound 70, 6-(Azetidin-1-yl)-N-phenylimidazo[1,2-a]pyridine-2-carboxamide]",0.16,
"CC(C)(O)c1ccc2nc(C(=O)Nc3ccccc3)cn2c1 [Compound 4, 6-(1-Hydroxy-1-methylethyl)-N-phenylimidazo[1,2-a]pyridine-2-carboxamide]",0.66,

# The remaining compounds from weak to strong by EC50 [1], led by results:
EC50 [1] [nM],"affinity (direct binding, classified by maximum binding level and kinetic parameters) [2]",SMILES
1.3,,"COc1ccc2nc(C(=O)Nc3ccccc3)cn2c1 [Compound 29, 6-Methoxy-N-phenylimidazo[1,2-a]pyridine-2-carboxamide]"
0.9,moderate,"O=C(Nc1ccccc1)c1cn2cc(-c3ccccc3)ccc2n1 [Compound 7, N,6-Diphenylimidazo[1,2-a]pyridine-2-carboxamide]"
0.6,low,"Cc1ccc2nc(C(=O)Nc3ccccc3)cn2c1 [Compound 19, 6-Methyl-N-phenylimidazo[1,2-a]pyridine-2-carboxamide]"
0.06,,"C=C(C)c1ccc2nc(C(=O)Nc3ccccc3)cn2c1 [Compound 32, 6-Isopropenyl-N-phenylimidazo[1,2-a]pyridine-2-carboxamide]"
